# Data reported in PMC10916623, “Tissue distribution and pharmacokinetics of isoxanthohumol from hops in rodents” (Food Science & Nutrition, 2023).
# Marks after values point to notes of the source that are not given here.
# Assay: Tissue distribution after single-gavage administration of IXA to mice
# Format: in vivo, C57/BL6 mice
# Settings: mice; for IXA accumulation, single-ingestion test (at 24 h): single IXA 50 mg/kg BW
# Description: Six‐week‐old male C57/BL6 mice (initial BW: 19–24 g; Japan SLC, Shizuoka, Japan) were housed in a room maintained at 23–26°C with a 12‐h light–dark cycle. During the 1‐week acclimatization period, they were allowed free access to a commercial diet (Oriental Yeast Co., Tokyo, Japan) and water. Two days before the experiment, they were fed AIN‐93M (Oriental Yeast Co.). Before drug administration, they were fasted for 20 h, but had free access to water. IXA dissolved in 3% hydroxypropyl‐β‐cyclodextrin and 5% ethanol (Fujifilm; Wako Pure Chemical Corp., Osaka, Japan) was named the injection solution and administered (50 mg/kg BW) to mice intragastrically using a gastric feeding tube (AS ONE, Osaka, Japan). Blood, brain, thymus, heart, lung, liver, spleen, pancreas, kidney, and gastrocnemius muscle were collected 0.5, 1, 2, 4, 8, 12, 24, and 48 h after administration. We also set up a control group, and mice in this group were sacrificed just before we started administering IXA at 0 h. At 4 h after administration, mice were allowed free access to AIN‐93 M. Plasma was isolated by centrifugation at 17 × 10^3 m/s^2 (5911, Kubota, Tokyo, Japan) for 5 min at 4°C. All tissues were dissected, weighed, and immediately frozen in liquid nitrogen. All samples were stored at −80°C until analysis.
# Tissue sample deconjugation was performed as described in a previous report with slight modifications (Tanaka et al., [2022]). Tissues were homogenized in phosphate‐buffered saline (pH 7.4), which was nine times the tissue volume. The tissue homogenate was incubated in 50 mmol/L ascorbic acid (one‐fifth the volume of phosphate‐buffered saline) and 1.67 μkat/100 μL of β‐glucuronidase type H‐1 in 0.1 mol/L sodium acetate buffer (pH 4.7, nine times the volume of the sample) for 2 h at 37°C. Then, 2.4 nmol of QTM was added to samples as an internal standard. The supernatant was isolated by centrifugation at 17 × 10^3 m/s^2 (Kubota) for 5 min at 4°C. Then, methanol (Kanto Kagaku, 25183‐2B) was added to the pellets, and they were shaken for 1 min. The methanol layer and pellets were separated by centrifugation at 17 × 10^3 m/s^2 (Kubota, RY1071‐A000) for 5 min at 4°C. Methanol extraction was repeated three times. Finally, methanol extracts were mixed with the supernatant (the composition of the mixture was 30% methanol) and then applied to an Inert Sep C8 (200 mg/3 mL; GL Sciences, Tokyo, Japan; 5010‐61082) cartridge. The cartridge was preconditioned with 6 mL of 2% acetic acid in methanol, and then 9 mL of 2% acetic acid in water. The extracted tissue was passed through the cartridge, and it was washed with 5 mL of 2% acetic acid in 30% methanol aq. The flavonoids were eluted with 10 mL of 2% acetic acid in methanol.
# The plasma and tissue extracts were evaporated using a Centrifugal Evaporator (EYERA, Tokyo, Japan, CVE‐3000). The samples were stored at −80°C until the next day. Then, the samples were dissolved in 120 μL of a mobile phase solution and divided into two test tubes. The first sample was injected into the HPLC with an ultraviolet detection system (Shimadzu, Kyoto, Japan).
# IXA and 8‐PN concentrations were determined by their respective standard curves using an internal standard method. A Cadenza 3‐μm CD‐C18 HPLC column (CD005, 150 × 4.6 mm; Imtakt Corporation, Kyoto, Japan) was equipped for HPLC (λ = 295 nm). The mobile phase consisted of methanol:water:acetic acid (60:35:5, v/v/v). The flow rate was set at 1.0 mL/min. […] Because clear peaks over 4.5 pmol/sample were detected for IXA and 8‐PN by visual evaluation, we determined that these concentrations were the peak limit of detections for each flavonoid. We applied calibration curves in the IXA/QTM concentration ratio range of 0.007–35.1 (R ^2 = .9955).
# [1] = kidney, single oral IXA 50 mg/kg BW
# [2] = lung, single oral IXA 50 mg/kg BW
substance,measurement,setting,value
"4,7‐dihydroxy‐5‐methoxy‐8‐prenylflavanone [IXA]",IXA detection in the brain,"brain, single oral IXA 50 mg/kg BW, data not shown",not detected
same,time of second peak of IXA,"heart, single oral IXA 50 mg/kg BW",4 h
same,C max IXA,"heart, single oral IXA 50 mg/kg BW, measured at 0.5 h","3.3 ± 1.0^b,c nmol/g of tissue"
same,"IXA accumulation, single-ingestion test (at 24 h)",kidney,4.6 ± 0.3 nmol/g of tissue
same,time of second peak of IXA,[1],8 h
same,IXA level at 48 h after ingestion,[1],2.67 ± 0.41 nmol/g tissue
same,C max IXA,"kidney, single oral IXA 50 mg/kg BW, measured at 1 h","25.5 ± 5.3^a,b nmol/g of tissue"
same,"IXA accumulation, single-ingestion test (at 24 h)",liver,3.2 ± 1.3 nmol/g of tissue
same,IXA level at 48 h after ingestion,"liver, single oral IXA 50 mg/kg BW",0.14 ± 0.12 nmol/g tissue
same,C max IXA,"liver, single oral IXA 50 mg/kg BW, measured at 1 h",76.2 ± 32.4^a nmol/g of tissue
same,"IXA accumulation, single-ingestion test (at 24 h)",lung,1.7 ± 1.5 nmol/g of tissue
same,time of second peak of IXA,[2],2 h
same,IXA level at 48 h after ingestion,[2],0.05 ± 0.04 nmol/g tissue
same,C max IXA,"lung, single oral IXA 50 mg/kg BW, measured at 0.5 h","5.3 ± 3.3^b,c nmol/g of tissue"
same,"IXA accumulation, single-ingestion test (at 24 h)",muscle,0.1 ± 0.1 nmol/g of tissue
same,C max IXA,"muscle, single oral IXA 50 mg/kg BW, measured at 0.5 h","3.4 ± 1.3^b,c nmol/g of tissue"
same,time of second peak of IXA,"pancreas, single oral IXA 50 mg/kg BW",12 h
same,C max IXA,"pancreas, single oral IXA 50 mg/kg BW, measured at 0.5 h","22.4 ± 2.1^b,c nmol/g of tissue"
same,time of second peak of IXA,"skeletal muscle, single oral IXA 50 mg/kg BW",12 h
same,"IXA accumulation, single-ingestion test (at 24 h)",spleen,1.1 ± 1.0 nmol/g of tissue
same,time of second peak of IXA,"spleen, single oral IXA 50 mg/kg BW",4 h
same,C max IXA,"spleen, single oral IXA 50 mg/kg BW, measured at 0.5 h","6.5 ± 2.2^b,c nmol/g of tissue"
same,"IXA accumulation, single-ingestion test (at 24 h)",thymus,3.6 ± 3.1 nmol/g of tissue
same,time of second peak of IXA,"thymus, single oral IXA 50 mg/kg BW",4 h
same,C max IXA,"thymus, single oral IXA 50 mg/kg BW, measured at 0.5 h","6.5 ± 4.1^b,c nmol/g of tissue"
